In one data set the test system is 3D7 strain. More on the design: method as in PMID 30023664. The settings on record: cited from earlier work.
The subject of data set [1] is P. falciparum parasite strains (3D7, Dd2, and K1). More on the design: method as in PMID 31290221. The settings on record: range over 3D7, Dd2 and K1 strains; cited from earlier work.
Data set [2] deals with CQ-resistant P. falciparum FcB1 strain. The experiment in a line: In vitro growth inhibition of P. falciparum FcB1 ([3H]-hypoxanthine incorporation). The format is cell-based, Plasmodium falciparum. The settings on record: for IC50: Plasmodium falciparum; for Selectivity Index (IC50 AB943/IC50 FcB1): ratio of cytotoxicity IC50 to antiplasmodial IC50 (FcB1). The method, then: (§1) The chloroquine-resistant FcB1/Colombia and Dd2/Indochina strains of Plasmodium falciparum were obtained from the Protist Collection of the National Museum of Natural History, Paris, France (n° MNHN-CEU-2016-224-PfFCB1 and MNHN-CEU-2016-222-PfDD2). The parasites were maintained in vitro on human erythrocytes in RPMI 1640 medium supplemented by 8% (v/v) heat-inactivated human serum, at 37 °C, under an atmosphere of 5% CO2. The human red blood cells and serum were provided by the Établissement Français du Sang under the C-CPSL-UNT approval no. 13/EFS/126. The in vitro drug susceptibility assays were measured by [^3H]-hypoxanthine incorporation, as previously described. The drug stock solutions were prepared in DMSO. Briefly, the assays were performed in 96-well plates. The compounds were diluted in the culture medium (100 μL per well). The parasite cultures (100 μL, 2% parasitaemia, and 1% final hematocrit) were then added to each well and incubated for 24 h at 37 °C prior to the addition of 0.5 μCi of [^3H]- hypoxanthine (GE Healthcare, Paris, France, 1 to 5 Ci·mmol/mL) per well. After a further incubation of 24 h, the plates were frozen and thawed. The cell lysates were then collected onto fiberglass filters and counted in a liquid scintillation spectrometer. The growth inhibition for each drug concentration was determined through a comparison of the radioactivity incorporated in the treated culture with that in the control culture maintained on the same plate. The drugs were first evaluated for a range of fixed concentrations of 50, 5, 0.5, 0.05, and 0.005 μg/mL. […] The IC50 value was obtained from the drug concentration–response curve, and the results were expressed in μM or nM as the mean values ± standard deviations determined from several independent experiments. Artesunate (46) was used as an antimalarial drug control.

For data set [3], the system named is human primary fibroblasts AB943. As to the kind of experiment: Cytotoxicity upon human primary fibroblasts AB943 (resazurin). The format is cell-based. The settings on record: Fibroblast, 72 h, mean +/− SD of at least three independent experiments. The method, then:
A cellular cytotoxicity evaluation was performed upon human primary fibroblasts AB943, as previously described. The assays were realized in 96-well plates in DMEM + Glutamax without phenol red medium containing 25 mM HEPES, a pH of 7.3, and 10% of fetal calf serum under a 5% CO2 atmosphere, at 37 °C. After trypsin treatment, the AB943 cells were seeded at 2000 cells per well in 100 μL. After 24 h of incubation, drugs diluted in the culture medium were added (100 μL per well). The drug stock solutions were prepared in dimethyl sulfoxide (DMSO). The final DMSO concentration in the cultures remained below 1%. Control cultures were constituted of cultures treated with DMSO instead of the drug. The cytotoxicity assay was based on the conversion of a redo-sensitive dye (resazurin) to a fluorescent product via viable cells. After 72 h of incubation, the resazurin solution was added in each well at a final concentration of 45 μM. The fluorescence was measured at 530 nm excitation and 590 nm emission wavelengths after 4 h of incubation. The percentage of the inhibition of cell growth was calculated by comparing the fluorescence of cells maintained in the presence of the drug to that in the absence of the drug. The concentration causing 50% growth inhibition (IC50) was obtained from the drug concentration–response curve, and the results were expressed as the mean values ± standard deviations determined from several experiments.

Data set [4] has as its system CQ-resistant Dd2 strain of P. falciparum. The experiment in a line: In vitro growth inhibition of P. falciparum Dd2 ([3H]-hypoxanthine incorporation). The format is cell-based, Plasmodium falciparum. The note with it: for IC50: Plasmodium falciparum, CQ-resistant Dd2, mean +/− SD of at least three independent experiments; for Selectivity Index (IC50 AB943/IC50 Dd2): ratio of cytotoxicity IC50 to antiplasmodial IC50 (Dd2). The method, then:
as §1

Data set [5] concerns mammalian and bacterial systems. More on the design: method as in PMID 32676153. The settings on record: cited from earlier work.
The test system of a further data set is 3D7 P. falciparum strain. On the set-up: method as in PMID 32676153. The note with it: cited from earlier work.
The next data set concerns W2 P. falciparum strain. On the set-up: method as in PMID 32676153. The note with it: cited from earlier work.
Data set [6] relates to CQ-resistant P. falciparum strain FcB1. The note with it: cited from earlier work.
The mark [7] stands for this setting: FCB1, CQ-resistant FcB1, mean +/− standard deviation of independent experiments (at least four in Tables 1-2, at least three in Tables 3-4).
Where [8] appears, read: FCB1, Table 5, single compound (hybrid or AS alone).

Each structure is given as a SMILES string. Where “and” joins values, the source holds several entries; their conditions need not be identical. Identical values can stand only once. Some results are limits rather than exact numbers.

With `CCN(CC)CCCC(C)Nc1ccnc2cc(Cl)ccc12` (centres unmarked) [CQ, chloroquine], the 50% effective concentration (EC50) in the data set with 3D7 strain is 9.8 ± 2.8 nM.

Regarding `CC1CCC2C(C)C(OC(=O)CCC(=O)OCCNc3ccnc4cc(Cl)ccc34)OC3OC4(C)CCC1C32OO4` (centres unmarked) [hybrid 4], in [1], the EC50 is 1.7 to 4.5 nM.

Turning to `C[C@H]1[C@@H](O)O[C@@H]2O[C@@]3(C)CC[C@H]4[C@H](C)CC[C@@H]1[C@@]24OO3` [DHA, dihydroartemisinin], the EC50 in the data set with 3D7 strain was 2.4 ± 0.4 nM.

Regarding `C[C@H]1[C@H](OC(=O)CCC(=O)O)O[C@@H]2O[C@@]3(C)CC[C@H]4[C@H](C)CC[C@@H]1[C@@]24OO3` [AS (46), artesunate, reference compound], the concentration for half-maximal inhibition (IC50) in [2] (setting [7]) is 18.5 nM; in data set [2] (setting [8]), 4.5 nM; in [3], above 130000 nM; in data set [4], 41.9 nM. Further, the “Selectivity Index (IC50 AB943/IC50 FcB1)” value in [2] is above 7042. Also, the half-maximal effective concentration (EC50) in [1] was 5.2 to 14.4 nM. Further, in [4], the “Selectivity Index (IC50 AB943/IC50 Dd2)” value is reported as above 3104.

For the compound `CC1CCC2C(C)C(OC(=O)CCC(=O)OCCNc3ccc4ncnc(Nc5ccc(Cl)c(Cl)c5)c4c3)OC3OC4(C)CCC1C32OO4` (centres unmarked) [hybrid 3], in the data set with 3D7 strain, the 50% effective concentration (EC50) is 1.4 ± 0.4 nM.

In turn, `CCn1cc(C(=O)N2CCN(c3ccnc4cc(Cl)ccc34)CC2)c(=O)c2cc(F)c(N3CCN(C(=O)CCC(=O)O[C@@H]4O[C@@H]5O[C@@]6(C)CCC7[C@H](C)CCC([C@H]4C)[C@]75OO6)CC3)cc21` (stereo partly drawn) [Compound 29, (3R,6R,9R,10S,12R,12aR)-3,6,9-trimethyldecahydro-12H-3,12-epoxy[1,2]dioxepino[4,3-i]isochromen-10-yl 4-(4-(3-(4-(7-chloroquinolin-4-yl)piperazine-1-carbonyl)-1-ethyl-6-fluoro-4-oxo-1,4-dihydroquinolin-7-yl)piperazin-1-yl)-4-oxobutanoate] returned a melting point of 168.7 to 169.6 °C. Further, the IC50 in [2] (setting [7]) amounted to 5 nM. Further, the “Selectivity Index (IC50 AB943/IC50 FcB1)” value in data set [2] is 6027. Also, the midpoint of inhibition in data set [3], the IC50, lay at 30300 nM. For the same compound, in data set [4], the concentration for half-maximal inhibition (IC50) is 18.2 nM and the “Selectivity Index (IC50 AB943/IC50 Dd2)” value is on record as 1658.

For `CCCCOC(=O)c1cn(C2CC2)c2cc(N3CCN(C(=O)CCC(=O)O[C@@H]4O[C@@H]5O[C@@]6(C)CCC7[C@H](C)CCC([C@H]4C)[C@]75OO6)CC3)c(F)cc2c1=O` (stereo partly drawn) [Compound 22, Butyl 1-cyclopropyl-6-fluoro-4-oxo-7-(4-(4-oxo-4-(((3R,6R,9R,10S,12R,12aR)-3,6,9-trimethyldecahydro-12H-3,12-epoxy[1,2]dioxepino[4,3-i]isochromen-10-yl)oxy)butanoyl)piperazin-1-yl)-1,4-dihydroquinoline-3-carboxylate], the melting point lay within 128.6 to 129.7 °C. Further, the 50% inhibitory concentration (IC50) in data set [2] (setting [7]) amounted to 3.5 nM. In addition, the half-inhibitory concentration (IC50) in [2] (setting [8]) is 3.5 nM. Further, in data set [2], the “Selectivity Index (IC50 AB943/IC50 FcB1)” value was 11,303. Besides, in [3], 38900 nM corresponded to half-maximal inhibition (IC50). In data set [4], the IC50 was determined as 13 nM and the “Selectivity Index (IC50 AB943/IC50 Dd2)” value turned out to be 3002.

Consider `CCOC(=O)c1cn(C2CC2)c2cc(N3CCN(c4ccnc5cc(Cl)ccc45)CC3)c(F)cc2c1=O` [hybrid 10], for which the “toxicity to mammalian and bacterial systems” value in data set [5] was “nontoxic”. Further, the half-maximal inhibitory concentration (IC50) is 63.2 ± 1.2 nM in the data set with 3D7 P. falciparum strain and 25.5 ± 4.45 nM with W2 P. falciparum strain.

For the compound `CCOC(=O)c1cn(CC)c2cc(N3CCN(C(=O)CCC(=O)O[C@@H]4O[C@@H]5O[C@@]6(C)CCC7[C@H](C)CCC([C@H]4C)[C@]75OO6)CC3)c(F)cc2c1=O` (stereo partly drawn) [Compound 23, Ethyl 1-ethyl-6-fluoro-4-oxo-7-(4-(4-oxo-4-(((3R,6R,9R,10S,12R,12aR)-3,6,9-trimethyldecahydro-12H-3,12-epoxy[1,2]dioxepino[4,3-i]isochromen-10-yl)oxy)butanoyl)piperazin-1-yl)-1,4-dihydroquinoline-3-carboxylate], the melting point is 140 to 141.1 °C. Moreover, the IC50 in data set [2] (setting [7]) worked out at 1.5 nM. Besides, the IC50 in data set [2] (setting [8]) turned out to be 1.5 nM. In data set [2], the “Selectivity Index (IC50 AB943/IC50 FcB1)” value was 28,000 and 28,382. Besides, the concentration for half-maximal inhibition (IC50) in [3] was determined as 43700 nM. In [4], the half-maximal inhibitory concentration (IC50) came to 3.5 nM and the “Selectivity Index (IC50 AB943/IC50 Dd2)” value was 12,488.

As for `C[C@@H]1CCC2[C@@H](C)[C@H](OC(=O)CCC(=O)N3CCN(c4cc5c(cc4F)c(=O)c(C(=O)O)cn5C4CC4)CC3)O[C@@H]3O[C@@]4(C)CCC1[C@@]23OO4` (stereo partly drawn) [Compound 20, 1-cyclopropyl-6-fluoro-4-oxo-7-(4-(4-oxo-4-(((3R,6R,9R,10S,12R,12aR)-3,6,9-trimethyldecahydro-12H-3,12-epoxy[1,2]dioxepino[4,3-i]isochromen-10-yl)oxy)butanoyl)piperazin-1-yl)-1,4-dihydroquinoline-3-carboxylic acid], the melting point lay in the range of 103.4 to 104.5 °C. Further, the half-inhibitory concentration (IC50) in [2] (setting [7]) is 4 nM. The “Selectivity Index (IC50 AB943/IC50 FcB1)” value in data set [2] is reported as 10,318. Moreover, the IC50 in data set [3] worked out at 41300 nM. Besides, in data set [4], the IC50 was 8 nM and the “Selectivity Index (IC50 AB943/IC50 Dd2)” value was determined as 5146.

With `C[C@@H]1CC[C@H]2[C@@H](C)C(=O)O[C@@H]3O[C@@]4(C)CC[C@@H]1[C@]32OO4` [ART, artemisinin], the 50% inhibitory concentration (IC50) in data set [6] is 55 ± 13.6 nM.

These data come from publication PMC10886162, “Synthesis of Novel Artemisinin, Ciprofloxacin, and Norfloxacin Hybrids with Potent Antiplasmodial Activity” (Antibiotics, 2024).
